Data reported in PubChem BioAssay (NCI).
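Five compound concentrations were applied to cells in 96-well plates for 48 hours; endpoints were derived by simple linear interpolation of the resulting dose-response curve. GI50 = concentration required for 50% inhibition of growth. TGI denotes the concentration required for complete inhibition of growth.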

How the values were obtained:
Test in all cases: NCI tumour cell line growth inhibition, 48 h
CAKI-1 renal = tested on: CAKI-1 renal
MALME-3M melanoma = tested on: MALME-3M melanoma
HOP-92 NSCLC = tested on: HOP-92 NSCLC
KM12 colon = tested on: KM12 colon
SNB-75 CNS = tested on: SNB-75 CNS
SK-OV-3 ovarian = tested on: SK-OV-3 ovarian
BT-549 breast = tested on: BT-549 breast
ACHN renal = tested on: ACHN renal
SR leukemia = tested on: SR leukemia
RPMI-8226 leukemia = tested on: RPMI-8226 leukemia
HCT-116 colon = tested on: HCT-116 colon
NCI/ADR-RES ovarian = tested on: NCI/ADR-RES ovarian
DU-145 prostate = tested on: DU-145 prostate
U251 CNS = tested on: U251 CNS
A498 renal = tested on: A498 renal
TK-10 renal = tested on: TK-10 renal
EKVX NSCLC = tested on: EKVX NSCLC
SW-620 colon = tested on: SW-620 colon
MDA-MB-231 breast = tested on: MDA-MB-231 breast
UO-31 renal = tested on: UO-31 renal
HS 578T breast = tested on: HS 578T breast
SNB-19 CNS = tested on: SNB-19 CNS
HL-60(TB) leukemia = tested on: HL-60(TB) leukemia
MOLT-4 leukemia = tested on: MOLT-4 leukemia
HT29 colon = tested on: HT29 colon
A549 NSCLC = tested on: A549 NSCLC
UACC-257 melanoma = tested on: UACC-257 melanoma
SF-295 CNS = tested on: SF-295 CNS
OVCAR-4 ovarian = tested on: OVCAR-4 ovarian
PC-3 prostate = tested on: PC-3 prostate
NCI-H460 lung = tested on: NCI-H460 lung
OVCAR-3 ovarian = tested on: OVCAR-3 ovarian
SK-MEL-2 melanoma = tested on: SK-MEL-2 melanoma
SF-268 CNS = tested on: SF-268 CNS
K-562 leukemia = tested on: K-562 leukemia
NCI-H522 lung = tested on: NCI-H522 lung
SK-MEL-28 melanoma = tested on: SK-MEL-28 melanoma
LOX IMVI melanoma = tested on: LOX IMVI melanoma
HOP-62 NSCLC = tested on: HOP-62 NSCLC
COLO 205 colon = tested on: COLO 205 colon
786-0 renal = tested on: 786-0 renal
SF-539 CNS = tested on: SF-539 CNS
MCF7 breast = tested on: MCF7 breast
RXF 393 renal = tested on: RXF 393 renal
UACC-62 melanoma = tested on: UACC-62 melanoma
OVCAR-8 ovarian = tested on: OVCAR-8 ovarian
CCRF-CEM leukemia = tested on: CCRF-CEM leukemia
MDA-MB-435 = tested on: MDA-MB-435
SK-MEL-5 melanoma = tested on: SK-MEL-5 melanoma
OVCAR-5 ovarian = tested on: OVCAR-5 ovarian
NCI-H226 lung = tested on: NCI-H226 lung
HCC-2998 colon = tested on: HCC-2998 colon
HCT-15 colon = tested on: HCT-15 colon
IGROV1 ovarian = tested on: IGROV1 ovarian
M14 melanoma = tested on: M14 melanoma
T-47D breast = tested on: T-47D breast
SN12C renal = tested on: SN12C renal

`CS(=O)c1nccc(-c2c(-c3ccc(F)c(OCc4ccc(F)cc4)c3)nc3sccn23)n1` (centres undefined) showed a GI50 (CAKI-1 renal) of 18.4 µM, a TGI (CAKI-1 renal) of 76.6 µM and a GI50 (MALME-3M melanoma) greater than 100 µM. For the same molecule, the TGI (MALME-3M melanoma) was greater than 100 µM, the GI50 (HOP-92 NSCLC) was 5.76 µM and the TGI (HOP-92 NSCLC) was 43.9 µM. It also gave a GI50 (KM12 colon) of 11.3 µM, a TGI (KM12 colon) of 31.6 µM and a GI50 (SNB-75 CNS) greater than 100 µM. It also gave a TGI (SNB-75 CNS) greater than 100 µM, a GI50 (SK-OV-3 ovarian) greater than 100 µM and a TGI (SK-OV-3 ovarian) greater than 100 µM. The GI50 (BT-549 breast) was greater than 100 µM, the TGI (BT-549 breast) was greater than 100 µM and the GI50 (ACHN renal) was 16.9 µM. The TGI (ACHN renal) was greater than 100 µM, the GI50 (SR leukemia) was 17.1 µM and the TGI (SR leukemia) was greater than 100 µM. It also gave a GI50 (RPMI-8226 leukemia) of 6.55 µM, a TGI (RPMI-8226 leukemia) of 43.8 µM and a GI50 (HCT-116 colon) of 5.08 µM. It also gave a TGI (HCT-116 colon) of 20.8 µM, a GI50 (NCI/ADR-RES ovarian) greater than 100 µM and a TGI (NCI/ADR-RES ovarian) greater than 100 µM. For the same molecule, the GI50 (DU-145 prostate) was 3.72 µM, the TGI (DU-145 prostate) was 13.2 µM and the GI50 (U251 CNS) was greater than 100 µM. It also gave a TGI (U251 CNS) greater than 100 µM, a GI50 (A498 renal) greater than 100 µM and a TGI (A498 renal) greater than 100 µM. It also gave a GI50 (TK-10 renal) greater than 100 µM, a TGI (TK-10 renal) greater than 100 µM and a GI50 (EKVX NSCLC) of 16.3 µM. The TGI (EKVX NSCLC) was 41.3 µM, the GI50 (SW-620 colon) was 27 µM and the TGI (SW-620 colon) was greater than 100 µM. For the same molecule, the GI50 (MDA-MB-231 breast) was 26.8 µM, the TGI (MDA-MB-231 breast) was greater than 100 µM and the GI50 (UO-31 renal) was greater than 100 µM. The TGI (UO-31 renal) was greater than 100 µM, the GI50 (HS 578T breast) was 73.1 µM and the TGI (HS 578T breast) was greater than 100 µM. The GI50 (SNB-19 CNS) was 14.9 µM, the TGI (SNB-19 CNS) was 38.6 µM and the GI50 (HL-60(TB) leukemia) was 3.54 µM. The TGI (HL-60(TB) leukemia) was 13.7 µM, the GI50 (MOLT-4 leukemia) was 10.2 µM and the TGI (MOLT-4 leukemia) was 90.2 µM. The GI50 (HT29 colon) was 22.3 µM, the TGI (HT29 colon) was greater than 100 µM and the GI50 (A549 NSCLC) was greater than 100 µM. It also gave a TGI (A549 NSCLC) greater than 100 µM, a GI50 (UACC-257 melanoma) of 15 µM and a TGI (UACC-257 melanoma) of 36.5 µM. The GI50 (SF-295 CNS) was greater than 100 µM, the TGI (SF-295 CNS) was greater than 100 µM and the GI50 (OVCAR-4 ovarian) was 22.4 µM. The TGI (OVCAR-4 ovarian) was 74.1 µM, the GI50 (PC-3 prostate) was 11.3 µM and the TGI (PC-3 prostate) was 34.1 µM. The GI50 (NCI-H460 lung) was 3.78 µM, the TGI (NCI-H460 lung) was 14.3 µM and the GI50 (OVCAR-3 ovarian) was 2.84 µM. For the same molecule, the TGI (OVCAR-3 ovarian) was 10.7 µM, the GI50 (SK-MEL-2 melanoma) was 71.8 µM and the TGI (SK-MEL-2 melanoma) was greater than 100 µM. It also gave a GI50 (SF-268 CNS) of 19.5 µM, a TGI (SF-268 CNS) of 57.6 µM and a GI50 (K-562 leukemia) of 6.53 µM. It also gave a TGI (K-562 leukemia) greater than 100 µM, a GI50 (NCI-H522 lung) of 60.6 µM and a TGI (NCI-H522 lung) greater than 100 µM. The GI50 (SK-MEL-28 melanoma) was 6.6 µM, the TGI (SK-MEL-28 melanoma) was 21.5 µM and the GI50 (LOX IMVI melanoma) was 74.6 µM. For the same molecule, the TGI (LOX IMVI melanoma) was greater than 100 µM, the GI50 (HOP-62 NSCLC) was 17.7 µM and the TGI (HOP-62 NSCLC) was 40.6 µM. For the same molecule, the GI50 (COLO 205 colon) was greater than 100 µM, the TGI (COLO 205 colon) was greater than 100 µM and the GI50 (786-0 renal) was greater than 100 µM. It also gave a TGI (786-0 renal) greater than 100 µM, a GI50 (SF-539 CNS) greater than 100 µM and a TGI (SF-539 CNS) greater than 100 µM. It also gave a GI50 (MCF7 breast) of 2.18 µM, a TGI (MCF7 breast) of 5.39 µM and a GI50 (RXF 393 renal) of 16.5 µM. For the same molecule, the TGI (RXF 393 renal) was 63.8 µM, the GI50 (UACC-62 melanoma) was 32.1 µM and the TGI (UACC-62 melanoma) was greater than 100 µM. The GI50 (OVCAR-8 ovarian) was 53.2 µM, the TGI (OVCAR-8 ovarian) was greater than 100 µM and the GI50 (CCRF-CEM leukemia) was 15.8 µM. It also gave a TGI (CCRF-CEM leukemia) greater than 100 µM, a GI50 (MDA-MB-435) of 47.8 µM and a TGI (MDA-MB-435) greater than 100 µM. It also gave a GI50 (SK-MEL-5 melanoma) of 44 µM, a TGI (SK-MEL-5 melanoma) greater than 100 µM and a GI50 (OVCAR-5 ovarian) greater than 100 µM. For the same molecule, the TGI (OVCAR-5 ovarian) was greater than 100 µM, the GI50 (NCI-H226 lung) was greater than 100 µM and the TGI (NCI-H226 lung) was greater than 100 µM. It also gave a GI50 (HCC-2998 colon) of 10.2 µM, a TGI (HCC-2998 colon) of 23.6 µM and a GI50 (HCT-15 colon) of 16.3 µM. The TGI (HCT-15 colon) was greater than 100 µM, the GI50 (IGROV1 ovarian) was 4.14 µM and the TGI (IGROV1 ovarian) was 17.1 µM. For the same molecule, the GI50 (M14 melanoma) was 35.1 µM, the TGI (M14 melanoma) was greater than 100 µM and the GI50 (T-47D breast) was 2.64 µM. It also gave a TGI (T-47D breast) of 7 µM, a GI50 (SN12C renal) greater than 100 µM and a TGI (SN12C renal) greater than 100 µM.
